# Source: patent publication US20240408051A1, “ADMINISTRATION METHOD OF A CHEMOTHERAPEUTIC AGENT” (priority 2021, published 2024)
# Assays:
# [1] = tested on: SW 1088 cells, A-172 cells, U-87 MG cells; assay: Cell viability using MTT dye; type: cell-based; details: Stiripentol at 250 μ/M; SW 1088, A-172, U-87 MG cells; vs untreated negative control
# Experimental: The present disclosure uses Stiripentol as a chemotherapeutic agent to treat brain tumor. Referring to FIG. 1, the cell viability is determined by using MTT dye (3-(4,5-dimethylthiazol-2-yl)-2,5-diphenyltetrazolium bromide and neutral red dye (3-amino-7-dimethylamino-2-methyl-phenazine hydrochloride). Cancer cells from various cell lines (SW 1088 cells, A-172 cells, U-87 MG cells) are incubated with, Stiripentol in the concentration range of 100-250 μ/M. Simultaneously all the cell lines are incubated with etoposide (positive control) in the concentration of 50 μ/M. The cells lines were thereafter treated with 0.05% (w/v) MTT dye for 4 h at 37° C. and DMSO. The cells lines that received no treatment are used as negative control. […] Cells can be incubated with drugs at indicated concentrations and time points. For the MTT assay, at the end of the drug treatments, cells are treated with 0.05% (w/v) MTT dye for 4 h at 37° C. The formazan crystals are dissolved in DMSO and absorbance was measured at 570 nm using the spectrophotometer. Similarly for neutral red assay, Cells are incubated with drugs at indicated concentrations and time points. Briefly, at the end of the drug treatments, cells are incubated with 40 μg/ml neutral red dye for 4 h at 37° C. […] Absorbance was measured at 540 nm using Tecan spectrophotometer.
# [2] = tested on: SW 1088 cells, A-172 cells, U-87 MG cells; assay: Cell viability using neutral red dye; type: cell-based; details: Stiripentol at 250 μ/M; after 24 hours; SW 1088, A-172, U-87 MG cells; vs untreated negative control
# Experimental: According to an embodiment the Cell viability can be determined using MTT dye (3-(4,5-dimethylthiazol-2-yl)-2,5-diphenyltetrazolium bromide) and neutral red dye (3-amino-7-dimethylamino-2-methyl-phenazine hydrochloride). Cells can be incubated with drugs at indicated concentrations and time points. For the MTT assay, at the end of the drug treatments, cells are treated with 0.05% (w/v) MTT dye for 4 h at 37° C. The formazan crystals are dissolved in DMSO and absorbance was measured at 570 nm using the spectrophotometer. Similarly for neutral red assay, Cells are incubated with drugs at indicated concentrations and time points. Briefly, at the end of the drug treatments, cells are incubated with 40 μg/ml neutral red dye for 4 h at 37° C. Cells were then destained using a solution (50% ethanol, 49% deionized water, and 1% glacial acetic acid). Absorbance was measured at 540 nm using Tecan spectrophotometer. Referring to FIG. 2, cell viability can be determined by utilizing natural red dye (3-amino-7-dimethylamino-2-methyl-phenazine hydrochloride). Cancer cells from various cell lines namely SW 1088 cells, A-172 cells, U-87 MG cells are incubated with Stiripentol and Doxorubicin (used as positive control) in the concentration range of 50-250 μ/M. thereafter the cells are treated with 40 μg/ml neutral red dye for 4 h at 37° C. and destained. […]
# [3] = tested on: SW 1088 cells, A-172 cells, U-87 MG cells; assay: Cell proliferation activity using BrdU assay; type: cell-based; details: Stiripentol at 250 μ/M; after 72 hours; SW 1088, A-172, U-87 MG cells; vs untreated negative control
# Experimental: Referring to FIG. 3, cell proliferative activity of the cancer cells can be determined using BrdU assay. Cancer cells from cell lines namely SW 1088 cells, A-172 cells, U-87 MG cells are incubated with Stiripentol and Doxorubicin (used as positive control) in the concentration range of 50-250 μ/M. The cell lines are treated with 10 micromolar of BrdU for 2 hours and washed with PBS and Formaldehyde. The treated cell lines are incubated with primary antibody and the secondary antibody. The untreated cells lines are used as negative control here.
# LDH enzyme from U-87 MG = assay: LDH inhibitory activity; type: biochemical; details: Stiripentol at 200 μ/M; after 24 hours; 1.7 mM pyruvate, 250 μM β-NADH; homogenized U-87 MG cells
# Experimental: Cancer cells up regulate glycolysis to support rapid growth. LDH is an enzyme part of glycolysis. Referring to FIG. 4 LDH inhibitory activity of Stiripentol can be measured by using LDH enzyme from U-87 MG. The cell culture media is treated with HEPES buffer. Cells are homogenized and treated with the respective drug. Cancer cells thereafter are incubated with Oxamate (used as positive control) at 250 μ/M and Stiripentol at 100 and 200 μ/M respectively. The treated cells are mixed with 1.7 mM of pyruvate and 250 μM of β-NADH.
structure (smiles),measurement,setting,value
"CC(C)(C)C(O)/C=C/c1ccc2c(c1)OCO2 (stereo not shown) [Stiripentol, 4,4-dimethyl-1-[3,4-(methylendioxy)-phenyl]-1penten-3-ol]",cell viability (MTT dye),[1],substantial decrease in the cell viability
same,viability of the cancer cells (natural red dye),[2],substantial reduction in the viability
same,cell proliferation activity (BrdU),[3],substantial reduction in the cell proliferation activity
same,LDH inhibitory activity (production of LDH enzyme),LDH enzyme from U-87 MG,substantial decrease in the production of LDH enzyme
